From PubChem BioAssay (NCI)
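Step 1: Grow cells in 96-well plates. Step 2: Expose to compound for 48 hours at 5 concentrations. Step 3: Interpolate endpoints linearly; if unreached, use highest concentration. Here, GI50 denotes the concentration required for 50% inhibition of growth. The concentration for full growth arrest is given as TGI.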 *1 amine or outer side, *2 acyl side, *3 side chain or, on linkers, in order; H or OH if unused. Where a SMILES comes first, the peptide text is derived from it. [ ]: non-standard residue; d: D form. The star is where a group is joined. X12 = NCCCCC(N[*:1])C(=O)CN1CCCC1C(=O)[*:2]; Pentadecanoyl = CCCCCCCCCCCCCCC(=O)*

Tests used:
Experiment in all cases: NCI tumour cell line growth inhibition, 48 h
786-0 renal = system: 786-0 renal
ACHN renal = system: ACHN renal
CCRF-CEM leukemia = system: CCRF-CEM leukemia
HT29 colon = system: HT29 colon
MALME-3M melanoma = system: MALME-3M melanoma
MCF7 breast = system: MCF7 breast
MOLT-4 leukemia = system: MOLT-4 leukemia
RXF 393 renal = system: RXF 393 renal
SK-MEL-2 melanoma = system: SK-MEL-2 melanoma
SNB-75 CNS = system: SNB-75 CNS
U251 CNS = system: U251 CNS

Structure (SMILES): CN1C(=O)[C@](C)(Cc2ccc(F)cc2)N(C(=O)OC(C)(C)C)[C@@H]1C(C)(C)C
- TGI (786-0 renal): 68.4 µM
- TGI (ACHN renal): > 100 µM
- TGI (CCRF-CEM leukemia): > 100 µM
- TGI (HT29 colon): 45.6 µM
- TGI (MALME-3M melanoma): > 100 µM
- TGI (MCF7 breast): 59.3 µM
- TGI (MOLT-4 leukemia): 40.6 µM
- TGI (RXF 393 renal): 59.9 µM
- TGI (SK-MEL-2 melanoma): > 100 µM
- TGI (SNB-75 CNS): > 100 µM
- TGI (U251 CNS): > 100 µM

Structure (SMILES): COc1cc(C)c(S(=O)(=O)N(CCCN)OCCCN)c(C)c1C
- TGI (786-0 renal): > 100 µM
- TGI (ACHN renal): > 100 µM
- TGI (CCRF-CEM leukemia): > 100 µM
- TGI (HT29 colon): > 100 µM
- TGI (MALME-3M melanoma): 42.8 µM
- TGI (MCF7 breast): 53.1 µM
- TGI (MOLT-4 leukemia): 31.4 µM
- TGI (RXF 393 renal): 90 µM
- TGI (SK-MEL-2 melanoma): 51.5 µM
- TGI (SNB-75 CNS): > 100 µM
- TGI (U251 CNS): > 100 µM

Structure (SMILES): CC(=O)OCC12C(OC(C)=O)C[C@@H](C)C3(CC(c4ccoc4)OC3=O)C1CCC(OC(C)=O)C21CO1 (stereo not given in full)
- TGI (786-0 renal): > 100 µM
- TGI (ACHN renal): > 100 µM
- TGI (CCRF-CEM leukemia): > 100 µM
- TGI (HT29 colon): > 100 µM
- TGI (MALME-3M melanoma): > 100 µM
- TGI (MCF7 breast): > 100 µM
- TGI (MOLT-4 leukemia): > 100 µM
- TGI (RXF 393 renal): > 100 µM
- TGI (SK-MEL-2 melanoma): > 100 µM
- TGI (SNB-75 CNS): > 100 µM
- TGI (U251 CNS): > 100 µM

Structure (SMILES): COc1ccc2c(-c3csc(-c4c[nH]c5ccccc45)n3)c[nH]c2c1
- TGI (786-0 renal): 18.2 µM
- TGI (ACHN renal): 16.9 µM
- TGI (CCRF-CEM leukemia): > 63.3 µM
- TGI (HT29 colon): 7.32 µM
- TGI (MALME-3M melanoma): 32.1 µM
- TGI (MCF7 breast): > 100 µM
- TGI (MOLT-4 leukemia): 19.8 µM
- TGI (RXF 393 renal): 17.9 µM
- TGI (SK-MEL-2 melanoma): > 86.2 µM
- TGI (SNB-75 CNS): 91.7 µM
- TGI (U251 CNS): 29.8 µM

Structure (SMILES): C=C1CC2C[C@H](OS(=O)(=O)c3ccc(C)cc3)C(C1)N2C (stereo not given in full)
- TGI (786-0 renal): > 100 µM
- TGI (CCRF-CEM leukemia): > 100 µM
- TGI (HT29 colon): > 100 µM
- TGI (MALME-3M melanoma): > 100 µM
- TGI (MCF7 breast): > 100 µM
- TGI (MOLT-4 leukemia): > 100 µM
- TGI (RXF 393 renal): > 100 µM
- TGI (SK-MEL-2 melanoma): > 100 µM
- TGI (SNB-75 CNS): > 100 µM
- TGI (U251 CNS): > 100 µM

Structure (SMILES): CC1CC2OC(=N)C1(C#N)C2(C#N)C#N (stereo not given)
- TGI (786-0 renal): 44.9 µM
- TGI (ACHN renal): > 100 µM
- TGI (CCRF-CEM leukemia): 44.3 µM
- TGI (HT29 colon): 47.7 µM
- TGI (MALME-3M melanoma): 48.9 µM
- TGI (MCF7 breast): > 100 µM
- TGI (MOLT-4 leukemia): > 100 µM
- TGI (RXF 393 renal): 31.1 µM
- TGI (SK-MEL-2 melanoma): 43.5 µM
- TGI (SNB-75 CNS): 43.1 µM
- TGI (U251 CNS): > 100 µM

Structure (SMILES): O=C(O)CCC(NC(=O)/C(=C/c1ccccc1)NC(=O)c1ccccc1)C(=O)O (stereo not given)
- TGI (786-0 renal): > 100 µM
- TGI (ACHN renal): > 100 µM
- TGI (CCRF-CEM leukemia): > 100 µM
- TGI (HT29 colon): > 100 µM
- TGI (MALME-3M melanoma): > 100 µM
- TGI (MCF7 breast): > 100 µM
- TGI (MOLT-4 leukemia): > 100 µM
- TGI (RXF 393 renal): > 100 µM
- TGI (SK-MEL-2 melanoma): > 100 µM
- TGI (SNB-75 CNS): > 100 µM

Structure (SMILES): CC1[C@@H]2C[C@@H]3O[C@@]34[C@H]3CCC5Cc6nc7c(nc6C[C@@]5(C)C3(O)CC(=O)[C@@]24CO[C@]12OC(C)(C)CC2O)CC1CC[C@@H]2C3=C[C@H]4O[C@@]5(O[C@@](C)(CO)C[C@@H]5O)C(C)[C@@]4(O)[C@]3(C)[C@@H](O)CC2[C@]1(C)C7 (stereo not given in full)
- TGI (CCRF-CEM leukemia): 0.0413 µM
- TGI (HT29 colon): 0.0945 µM
- TGI (MALME-3M melanoma): 0.247 µM
- TGI (MCF7 breast): > 3.52 µM
- TGI (RXF 393 renal): 0.0296 µM
- TGI (SK-MEL-2 melanoma): 0.863 µM
- TGI (SNB-75 CNS): 0.028 µM
- TGI (U251 CNS): 0.332 µM

Structure (SMILES): C/C(=N/NC(=O)c1ccccc1Nc1ccccc1C(=O)N/N=C(\C)c1ccc(C)cc1)c1ccc(C)cc1
- TGI (786-0 renal): > 100 µM
- TGI (ACHN renal): > 100 µM
- TGI (CCRF-CEM leukemia): > 100 µM
- TGI (HT29 colon): > 100 µM
- TGI (MALME-3M melanoma): > 100 µM
- TGI (MCF7 breast): > 100 µM
- TGI (MOLT-4 leukemia): > 100 µM
- TGI (RXF 393 renal): > 100 µM
- TGI (SK-MEL-2 melanoma): > 100 µM
- TGI (SNB-75 CNS): > 100 µM
- TGI (U251 CNS): > 100 µM

Structure (SMILES): O=C(c1cccs1)N(C(=O)N1CCCCC1)c1ccccc1
- TGI (786-0 renal): > 100 µM
- TGI (ACHN renal): > 100 µM
- TGI (CCRF-CEM leukemia): > 100 µM
- TGI (HT29 colon): > 100 µM
- TGI (MALME-3M melanoma): > 100 µM
- TGI (MCF7 breast): > 100 µM
- TGI (MOLT-4 leukemia): > 100 µM
- TGI (RXF 393 renal): > 100 µM
- TGI (SK-MEL-2 melanoma): > 100 µM
- TGI (SNB-75 CNS): 88.7 µM
- TGI (U251 CNS): > 100 µM

Structure (SMILES): CC1C/C(=C\c2ccc(O)c(O)c2)C(=O)/C(=C/c2ccc(O)c(O)c2)C1 (stereo not given)
- TGI (ACHN renal): 21.6 µM
- TGI (CCRF-CEM leukemia): 7.2 µM
- TGI (HT29 colon): 34.2 µM
- TGI (MALME-3M melanoma): 25.1 µM
- TGI (MCF7 breast): 14.8 µM
- TGI (MOLT-4 leukemia): 20.3 µM
- TGI (RXF 393 renal): 14.4 µM
- TGI (SK-MEL-2 melanoma): 34.8 µM
- TGI (SNB-75 CNS): 16.7 µM
- TGI (U251 CNS): 18.1 µM

Structure (SMILES): CC(=O)c1nc(C#N)c(N)o1
- TGI (786-0 renal): > 100 µM
- TGI (ACHN renal): > 100 µM
- TGI (CCRF-CEM leukemia): > 100 µM
- TGI (HT29 colon): > 100 µM
- TGI (MALME-3M melanoma): > 100 µM
- TGI (MCF7 breast): > 100 µM
- TGI (MOLT-4 leukemia): > 100 µM
- TGI (RXF 393 renal): > 100 µM
- TGI (SK-MEL-2 melanoma): > 100 µM
- TGI (SNB-75 CNS): > 100 µM
- TGI (U251 CNS): > 100 µM

Structure (SMILES): CCCCCCCCCCCCCCC(=O)NC(CCCCN)C(=O)CN1CCCC1C(=O)NCC(=O)NC(Cc1ccccc1)C(=O)N1CCCC1C(=O)NC(CO)C(=O)NC(Cc1ccc(O)cc1)C(=O)NC(CCCCN)C(=O)NC(CC(C)C)C(=O)NC(CCCN=C(N)N)C(=O)N1CCCC1C(=O)NCC(N)=O (stereo not given) (Pentadecanoyl-[X12]GFPSYKLRPG-NH2; configuration not given here)
- GI50 (CCRF-CEM leukemia): 16.8 µM
- TGI (CCRF-CEM leukemia): 32.2 µM
- GI50 (HT29 colon): 36.9 µM
- TGI (HT29 colon): > 100 µM
- GI50 (MALME-3M melanoma): 8.11 µM
- TGI (MALME-3M melanoma): 32.2 µM
- GI50 (MCF7 breast): 27.6 µM
- TGI (MCF7 breast): 61.3 µM
- GI50 (MOLT-4 leukemia): 16.3 µM
- TGI (MOLT-4 leukemia): 34.6 µM
- GI50 (RXF 393 renal): 26.1 µM
- TGI (RXF 393 renal): 60.4 µM
- GI50 (SK-MEL-2 melanoma): 37.5 µM
- TGI (SK-MEL-2 melanoma): > 100 µM
- GI50 (SNB-75 CNS): 27.6 µM
- TGI (SNB-75 CNS): 58.5 µM

Structure (SMILES): O=C(N(C1=CCCC1)N(c1ccccc1)c1ccccc1)C(F)(F)F
- TGI (786-0 renal): 96.5 µM
- TGI (ACHN renal): 38.8 µM
- TGI (CCRF-CEM leukemia): 91.8 µM
- TGI (HT29 colon): 42.6 µM
- TGI (MALME-3M melanoma): 14.4 µM
- TGI (MCF7 breast): 44.6 µM
- TGI (MOLT-4 leukemia): 76.2 µM
- TGI (RXF 393 renal): 38.8 µM
- TGI (SK-MEL-2 melanoma): 35 µM
- TGI (SNB-75 CNS): > 100 µM
- TGI (U251 CNS): 42.2 µM

Structure (SMILES): O=C(Nc1ccccc1C(=O)O)C(=Cc1ccccc1O)NC(=O)c1ccccc1
- TGI (786-0 renal): > 100 µM
- TGI (ACHN renal): > 100 µM
- TGI (CCRF-CEM leukemia): > 100 µM
- TGI (HT29 colon): > 100 µM
- TGI (MALME-3M melanoma): > 100 µM
- TGI (MCF7 breast): > 100 µM
- TGI (MOLT-4 leukemia): > 100 µM
- TGI (RXF 393 renal): > 100 µM
- TGI (SK-MEL-2 melanoma): > 100 µM
- TGI (SNB-75 CNS): > 100 µM
- TGI (U251 CNS): > 100 µM

Structure (SMILES): NC(=O)c1ccc(S(=O)(=NS(=O)(=O)c2ccccc2)c2ccc(C(N)=O)cc2)cc1
- TGI (786-0 renal): > 100 µM
- TGI (ACHN renal): > 100 µM
- TGI (CCRF-CEM leukemia): > 100 µM
- TGI (HT29 colon): > 100 µM
- TGI (MALME-3M melanoma): > 100 µM
- TGI (MCF7 breast): > 100 µM
- TGI (MOLT-4 leukemia): > 100 µM
- TGI (RXF 393 renal): > 100 µM
- TGI (SK-MEL-2 melanoma): > 100 µM
- TGI (SNB-75 CNS): > 100 µM
- TGI (U251 CNS): > 100 µM
